Test results published in patent US9890327B2, “Phosphorescent transition metal complex, its preparation and use” (City University of Hong Kong, priority 2015, dated 2018).

Columns and labels:
[1] = degassed CH3CN solution, λex=355 nm; cited from earlier work
[2] = Reaction kinetics with H2O2 under pseudo first-order conditions, UV-Visible spectroscopy; format: physicochemical; settings: 298 K
Method: Kinetics experiments for the reactions of metal complex of Formula (IV) with H2O2 were performed under pseudo first-order conditions. Metal complex of Formula (IV) (10 μM) was reacted with H2O2 in a 1:100, 1:200, 1:400, or 1:800 molar ratio in potassium phosphate buffer (50 mM, pH 7.4)/DMSO (99:1, v/v) at 298 K. The reactions were monitored by UV-Visible spectroscopy at ca. 343 nm. The kobs values were determined by fitting the experimental data to the first-order rate equation, [A]=[A]oe^−kt. The k2 value was determined by plotting kobs versus [H2O2] and the rate constant corresponds to the determined slope.
The change in absorption spectrum of metal complex of Formula (IV) (10 μM) in aerated potassium phosphate buffer (50 mM, pH 7.4)/DMSO (99:1, v/v) in the presence of H2O2(1 mM) at 298 K is shown in FIG. 3. […] The pseudo first-order rate constant (kobs) of reaction of metal complex of Formula (IV) (10 μM) was determined to be (0.6375±0.0092)×10^−3 s^−1. The plot of kobs of reactions of metal complex of Formula (IV) with H2O2 against various concentrations of H2O2 is shown in FIG. 4.

[3] = Selectivity study: emission response toward reactive oxygen species; format: physicochemical; settings: complex 10 μM, buffer pH 7.4/DMSO (99:1), 1.5 h
Method: In H2O2-sensing studies, various amounts of H2O2 (25 mM; 0-20 μL) were added to a series of solutions containing metal complex of Formula (IV) (10 μM) in potassium phosphate buffer (50 mM, pH 7.4)/DMSO (99:1, v/v). The reaction mixtures were incubated in the dark at room temperature for 1.5 h, and their emission spectra were then measured. The limit of detection was determined according to the equation, […]. In the selectivity studies, different reactive oxygen species (100 μM) were added into a series of solutions containing metal complex of Formula (IV) (10 μM) in potassium phosphate buffer (50 mM, pH 7.4)/DMSO (99:1, v/v). The reaction mixtures were incubated in the dark at room temperature for 1.5 h, and their emission spectra were then measured. H2O2 was diluted from a stabilized 30% aqueous solution. TBHP was diluted from a 70% aqueous solution. NOC-7, KO2, and NaOCl were used as the sources of NO, O2^−, and ClO^−, respectively. Singlet oxygen (^1O2) was generated by the reaction of NaOCl and H2O2(Held, A M. Et al., Am. Chem. Soc., 1978, 100:5732-5740; Aubry, J M., J. Am. Chem. Soc., 1985, 107:5844-5849). Hydroxyl radicals (OH.) were generated by the reaction of ammonium iron(II) sulfate hexahydrate and H2O2. […]

HeLa cells [4] = experiment: Cytotoxicity by MTT assay; format: cell-based
Method: To confirm the suitability of the possibility of metal complex of Formula (IV) as phosphorescent sensor for intracellular H2O2, the cytotoxicity of metal complex of Formula (IV) was examined by the MTT assay.
HeLa cells were cultured in growth medium in a humidified chamber at 37° C. under a 5% CO2 atmosphere. The cells were subcultured every 2-3 days. HeLa cells were seeded in a 96-well flat-bottomed microplate (10,000 cells/well) in a growth medium (100 μL) and incubated at 37° C. under a 5% CO2 atmosphere for 24 h. […] The wells containing untreated cells were used as blank controls. […] Then MTT in PBS (5 mg/mL; 10 μL) was added to each well. The microplate was then incubated for another 4 h. The medium was removed and DMSO (200 μL) was added to each well. The microplate was further incubated for 10 min. The absorbance of the solutions at 570 nm was measured with a SPECTRAmax 340 microplate reader (Molecular Devices Corp., Sunnyvale, Calif.). Percentage cell survival was calculated relative to the absorbance of the control for each treatment. The viability of untreated cells was assumed to be 100%.

[5] = Photophysical properties (emission, lifetime, luminescence quantum yield); format: physicochemical; settings: for Φem / λem / τo: 298 K
Method: ^1H NMR spectra were recorded on a Bruker 400 MHz AVANCE III spectrometer at 298 K using deuterated solvents. Chemical shifts (8, ppm) were reported relative to tetramethylsilane (TMS). Positive-ion electrospray ionization (ESI) mass spectra were recorded on a Perkin Elmer Sciex API 365 mass spectrometer at 298 K. IR spectra of the samples in KBr pellets were recorded in the range of 4000-400 cm^−1 using a Perkin Elmer FTIR-1600 spectrophotometer. Electronic absorption and steady-state emission spectra were recorded on a Hewlett-Packard 8453 diode array spectrophotometer and a SPEX Fluorolog 3-TCSPC spectrofluorometer, respectively. Emission lifetimes were measured in the Fast MCS or TCSPC mode with a NanoLED N-375 as the excitation source. Unless specified otherwise, all solutions for photophysical studies were degassed with no fewer than four successive freeze-pump-thaw cycles and stored in a 10 cm^3 round bottomed flask equipped with a side-arm 1-cm fluorescence cuvette and sealed from the atmosphere by a Rotaflo HP6/6 quick-release Teflon stopper. Luminescence quantum yields were measured by the optically dilute method (Demas, J N., Crosby, G A J., Phys. Chem., 1971, 75:991-1024) using a degassed CH3CN solution of [Re(phen)(CO)3(pyridine)](CF3SO3) (phen=1,10-phenanthroline) (φem=0.18, λex=355 nm) as the standard solution.
The photophysical data are summarized in Table 2, and the emission spectra of metal complex of Formula (IV) in CH3CN and aqueous buffer solutions at 298 K are shown in FIG. 2.

HeLa cells [6] = experiment: Live-cell imaging by laser-scanning confocal microscopy (uptake, mitochondrial co-staining, intracellular H2O2); format: cell-based
Method: For co-staining experiments, HeLa cells in growth medium were seeded on a sterilized coverslip in a 35-mm tissue culture dish and grown at 37° C. under a 5% CO2 atmosphere for 48 h. The medium was removed and the cells were incubated with metal complex of Formula (IV) (10 μM) in growth medium/DMSO (99:1, v/v) for 40 min and then with MitoTracker Deep Red FM (100 nM) in a FBS-free medium for another 20 min. Prior to imaging, the cells were washed with PBS (1 mL×3), mounted onto a sterilized glass slide, and then imaged using a Leica TCS SPE confocal microscope with an oil immersion 63× objective. The excitation wavelength for metal complex of Formula (IV) was 405 nm and that of MitoTracker Deep Red FM was 633 nm. The Pearson's coefficient was determined by the program Image J (version 1.45k). For imaging of intracellular H2O2, HeLa cells in growth medium were seeded on a sterilized coverslip in a 35-mm tissue culture dish and grown at 37° C. under a 5% CO2 atmosphere for 48 h. The medium was removed and the cells were incubated with metal complex of Formula (IV) (10 μM) in growth medium/DMSO (99:1, v/v) for 1 h. The stained cells were washed with PBS (1 mL×3) and further treated with H2O2 (1 mM) in growth medium for another 2 h. Prior to imaging, the cells were washed with PBS (1 mL×3), mounted onto a sterilized glass slide, and then imaged using a Leica TCS SPE confocal microscope with an oil immersion 63× objective.
The use of metal complex of Formula (IV) for intracellular H2O2-sensing was evaluated by laser-scanning confocal microscopy. […] (FIG. 10D to 10F). This implies that the internalization of metal complex of Formula (IV) involved an energy-requiring pathway such as endocytosis.
With reference to FIG. 11A to 11C, the metal complex of Formula (IV) was localized in the mitochondria (Pearson's coefficient: 0.99).

[7] = H2O2-sensing emission titration; format: physicochemical; settings: complex 10 μM, buffer pH 7.4/DMSO (99:1)
Method: In H2O2-sensing studies, various amounts of H2O2 (25 mM; 0-20 μL) were added to a series of solutions containing metal complex of Formula (IV) (10 μM) in potassium phosphate buffer (50 mM, pH 7.4)/DMSO (99:1, v/v). The reaction mixtures were incubated in the dark at room temperature for 1.5 h, and their emission spectra were then measured. The limit of detection was determined according to the equation, […]. In the selectivity studies, different reactive oxygen species (100 μM) were added into a series of solutions containing metal complex of Formula (IV) (10 μM) in potassium phosphate buffer (50 mM, pH 7.4)/DMSO (99:1, v/v). The reaction mixtures were incubated in the dark at room temperature for 1.5 h, and their emission spectra were then measured. H2O2 was diluted from a stabilized 30% aqueous solution. TBHP was diluted from a 70% aqueous solution. NOC-7, KO2, and NaOCl were used as the sources of NO, O2^−, and ClO^−, respectively. Singlet oxygen (^1O2) was generated by the reaction of NaOCl and H2O2(Held, A M. Et al., Am. Chem. Soc., 1978, 100:5732-5740; Aubry, J M., J. Am. Chem. Soc., 1985, 107:5844-5849). Hydroxyl radicals (OH.) were generated by the reaction of ammonium iron(II) sulfate hexahydrate and H2O2.
The reactivity of metal complex of Formula (IV) with H2O2 was examined by emission titrations and the emission titration traces and corresponding titration curve are shown in FIGS. 5 and 6, respectively. […] The detection limit was calculated to be 1.84 μM.

[8] = Potassium phosphate buffer (50 mM, pH 7.4)/MeOH (7:3, v/v)

Compound	φem of standard solution [1]	pseudo first-order rate constant (kobs) ([2]; complex 10 μM, H2O2 (1 mM), aerated potassium phosphate buffer (50 mM, pH 7.4)/DMSO (99:1, v/v))	second-order rate constant ([2]; slope of kobs versus [H2O2], potassium phosphate buffer (50 mM, pH 7.4)/DMSO (99:1, v/v))	emission response toward H2O2 ([3]; H2O2 100 μM)	emission response toward TBHP, 1O2, OH., NO, O2−, ClO− ([3]; ROS 100 μM)	cytotoxic effect under imaging experiment conditions (HeLa cells [4]; 10 μM, 1 h)	IC50 (HeLa cells [4]; HeLa cells, 48 h, MTT)	Φem ([5]; CH3CN)	λem ([5]; CH3CN)	τo ([5]; CH3CN)	Φem [5, 8]	λem [5, 8]	τo [5, 8]	luminescence quantum yield ([5]; upon irradiation, very weak MLCT emission)	emission intensity of the cells at lowered incubation temperature (HeLa cells [6]; HeLa cells, 10 μM, 1 h, 4° C.)	intracellular emission (HeLa cells [6]; HeLa cells, 10 μM, 1 h, 37° C.)	intracellular emission intensity after incubation with H2O2 (HeLa cells [6]; complex-stained HeLa cells, H2O2 1 mM, 2 h)	emission enhancement (I/I0) ([7]; [H2O2]=250 μM, 1.5 h)	H2O2 concentration range of good linearity of emission intensity enhancement [7]	detection limit for H2O2 [7]
O=S(=O)([O-])C(F)(F)F.[C-]#[O+].[C-]#[O+].[C-]#[O+].[Re+].c1ccncc1.c1cnc2c(c1)ccc1cccnc12 [[Re(phen)(CO)3(pyridine)](CF3SO3)]	0.18																			
[Re(Ph2-phen)(CO)3(py-3-C(═O)C(═O)C6H3(NH2)(NO2)](CF3SO3) [Metal complex of Formula (IV)]		(0.6375±0.0092)×10^−3 s^−1	0.7301 ± 0.0134 M⁻¹ s⁻¹	significant emission enhancement	did not induce any significant changes in the emission intensity	would not cause significant cytotoxic effect	3.34 ± 0.05 µM	0.007	554 nm	4.83 μs	0.005	557 nm	3.14 μs	< 0.007	significantly reduced	weak intracellular emission in the perinuclear region	significantly enhanced	20.6	0 to 50 µM	1.84 µM
